Source: PMC9405973, “Altered Conformational Landscape upon Sensing Guanine Nucleotides in a Disease Mutant of Elongation Factor-like 1 (EFL1) GTPase” (Biomolecules, 2022)
Where “and” joins values, the source holds several entries; their conditions need not be identical. Equal values may be shown once. Read-outs that look alike come from different tables or passages of the source.

What was measured:
wild-type Efl1•Sdo1 = test system: wild-type Efl1•Sdo1; design: method as in PMID 30780079; conditions: −Mg^2+, cited from earlier work
Efl1 R1086Q•Sdo1 = target: T1, Efl1 R1086Q•Sdo1 (Saccharomyces cerevisiae, UniProt P53893, R1086Q); assay: ITC: binding of guanine nucleotides to pre-formed complex Efl1 R1086Q•Sdo1; conditions: for ΔCpb: from ΔHb at 25–35 °C; for -TΔs / Δg / Δh / κ (heterotropic cooperativity): Effect of Mg^2+
T1 construct: made in house; host or cells: Efl1: Saccharomyces cerevisiae; Sdo1: Escherichia coli C41
Procedure: All calorimetric measurements were carried out using MicroCal^TM iTC200 System (GE Healthcare, Northampton, MA, USA) in a temperature range of 25–35 °C. Experiments were performed in a buffer consisting of 50 mM Tris-HCl (pH 8.0), 150 mM NaCl, 100 µM DTT, and 5% glycerol. In the titrations with Mg^2+-bound nucleotides, both the ligand and protein solutions contained 5 mM MgCl2. In the case of titrations with Mg^2+-free nucleotide, both the ligand and protein solutions were supplemented with 2 mM EDTA to sequester any residual trace of metal ions in solution. Protein samples and ligands were prepared in the exact same buffer prior to each titration. Protein concentration in the cell comprised 30–50 µM GTPase, while the ligand concentration in the syringe was 2–3 mM for GTP, MgGTP, GDP, and MgGDP. To ensure measuring the interaction of the complex Efl1 R1086Q•Sdo1 with the nucleotide, an eight-fold concentration excess of Sdo1 was used compared with that of the enzyme. […] The titration schedule consisted of 15–20 consecutive injections of the ligand with 5 min intervals between injections and a stirring rate of 700 rpm. The dilution heat of the ligand was obtained by adding the ligand to a buffer solution under identical conditions and with the same injection schedule used for the protein sample. All samples were degassed for 10 min prior to the experiment.
The binding isotherms obtained for the isolated GTPase in the presence of Mg(II) were analysed using a ternary model in which the protein can bind to the free nucleotide (G(D)TP) or that bound to one magnesium ion (MgG(D)TP); additionally, GTP may also exist in the form of Mg2GTP, which is not recognised by the protein. The derivation of this coupled-equilibria model can be reviewed in [6, 31]. The binding constant (Kb), the enthalpy change (∆Hb), and the stoichiometry (n) were obtained with the non-linear routines implemented in Origin 5.0 (OriginLab, Co., Northampton, MA, USA) using a one-binding-site model as described in [32, 33]. The heterotropic cooperativity for the binding of guanine nucleotides and Sdo1 to Efl1 R1086Q were calculated as previously described in [6, 32]. The cooperative effects of Mg(II) on the binding of guanine nucleotides to Efl1 R1086Q alone and bound to Sdo1 were calculated as follows:κ = KE-MG/KE-G κ = KES-MG/KES-G Δh = ΔHE-MG − ΔHE-G Δh = ΔHES-MG − ΔHES-G where subscripts E-MG and E-G stand for the association of the metal-bound and metal-free guanine nucleotide with mutant Efl1, respectively. Corresponding expressions applied to the heterotropic cooperativity of the binding of nucleotides to the preformed complex, Efl1•Sdo1 (ES).
The impact of Sdo1 on the binding of Efl1 R1086Q to guanine nucleotides in the presence of magnesium ions is contained in KES-MG and ΔHES-MG relative to the KE-S and ΔHE-S values; analogous ratios report the effects in the absence of Mg(II):κ = KES-MG/KE-S κ = KES-G/KE-G Δh = ΔHES-MG − ΔHE-S Δh = ΔHES-G − ΔHE-G
The corresponding cooperative entropy change was calculated as:TΔs = Δh − Δg = Δh + RTlnκ
The detailed methodology and equations to compute the changes in the accessible surface area (∆ASA) of the GTPase upon binding to nucleotides and the ∆S energetic-based parameters are reported in [6]. Briefly, the water-accessible areas (ASAs) were computed using programme NACCESS, while the changes in accessible surface area (ΔASA) upon the formation of each GTPase–nucleotide complex were estimated considering the difference between the complex and the sum of the free interacting partners. The calculated polar (ΔASAp) and apolar (ΔASAap) area changes were subsequently used to estimate the free molecular partners. […]

wild-type Efl1 = conditions: cited from earlier work; for -TΔSb / Kd / ΔGb / ΔHb / ΔCpb: guanine nucleotide
[1] = Effect of Mg^2+, wild-type Efl1 − Sdo1, 30 °C
[2] = Effect of Sdo1, wild-type Efl1 − Mg^2+, 30 °C

T1 sequence (P53893 whole entry R1086Q): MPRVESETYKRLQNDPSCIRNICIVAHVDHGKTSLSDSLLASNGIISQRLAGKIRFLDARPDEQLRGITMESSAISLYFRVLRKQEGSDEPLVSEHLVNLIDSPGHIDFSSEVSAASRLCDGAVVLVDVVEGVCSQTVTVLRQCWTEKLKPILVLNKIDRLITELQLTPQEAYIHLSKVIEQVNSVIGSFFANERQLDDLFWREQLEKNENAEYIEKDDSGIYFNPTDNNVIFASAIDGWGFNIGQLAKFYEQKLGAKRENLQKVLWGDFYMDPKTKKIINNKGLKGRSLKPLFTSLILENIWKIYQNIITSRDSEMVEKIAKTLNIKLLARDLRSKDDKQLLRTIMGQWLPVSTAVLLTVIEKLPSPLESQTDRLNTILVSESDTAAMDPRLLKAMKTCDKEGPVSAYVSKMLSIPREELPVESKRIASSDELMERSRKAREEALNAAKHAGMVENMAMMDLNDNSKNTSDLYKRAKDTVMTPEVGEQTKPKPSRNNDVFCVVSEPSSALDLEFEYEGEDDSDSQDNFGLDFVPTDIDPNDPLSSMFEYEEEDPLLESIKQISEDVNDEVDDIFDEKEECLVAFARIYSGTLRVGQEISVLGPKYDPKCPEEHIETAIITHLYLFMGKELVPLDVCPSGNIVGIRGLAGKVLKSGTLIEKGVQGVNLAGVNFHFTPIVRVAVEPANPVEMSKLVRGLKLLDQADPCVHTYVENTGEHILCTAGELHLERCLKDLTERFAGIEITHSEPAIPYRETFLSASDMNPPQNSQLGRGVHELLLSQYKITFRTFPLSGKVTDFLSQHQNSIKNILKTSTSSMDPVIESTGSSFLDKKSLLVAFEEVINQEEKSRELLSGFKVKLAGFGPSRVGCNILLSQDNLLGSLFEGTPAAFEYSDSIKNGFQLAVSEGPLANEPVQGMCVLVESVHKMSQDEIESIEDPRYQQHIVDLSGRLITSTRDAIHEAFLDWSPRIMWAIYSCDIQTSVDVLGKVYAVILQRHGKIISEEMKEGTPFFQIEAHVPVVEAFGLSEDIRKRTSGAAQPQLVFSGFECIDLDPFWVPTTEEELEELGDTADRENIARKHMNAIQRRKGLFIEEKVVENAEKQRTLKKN
T1 sequence (Q07953 whole entry, further chain): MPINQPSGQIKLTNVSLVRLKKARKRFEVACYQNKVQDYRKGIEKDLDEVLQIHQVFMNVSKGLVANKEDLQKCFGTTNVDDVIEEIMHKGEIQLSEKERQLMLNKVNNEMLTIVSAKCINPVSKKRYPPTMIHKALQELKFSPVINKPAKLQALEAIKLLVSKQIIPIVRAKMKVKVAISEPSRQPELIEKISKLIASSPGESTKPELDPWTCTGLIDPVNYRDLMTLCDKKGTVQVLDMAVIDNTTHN

Nc1nc2c(ncn2[C@@H]2O[C@H](COP(=O)(O)OP(=O)(O)O)[C@@H](O)[C@H]2O)c(=O)[nH]1 [GDP]
-TΔSb (wild-type Efl1•Sdo1; 30 °C): 1.5 kcal/mol | Kd (wild-type Efl1•Sdo1; 30 °C): 52 µM | ΔGb (wild-type Efl1•Sdo1; 30 °C): -5.9 kcal/mol | ΔHb (wild-type Efl1•Sdo1; 30 °C): -7.4 ± 0.0 kcal/mol | ΔCpb (wild-type Efl1•Sdo1): −640 cal mol^−1 K^−1 and −640 ± 34 cal mol^−1 K^−1 | fold greater affinity in the presence of magnesium ions (Efl1 R1086Q•Sdo1; +Mg^2+ vs −Mg^2+): 2–5 times | -TΔSb (Efl1 R1086Q•Sdo1; +Mg^2+, 25 °C): -4.7 kcal/mol | ΔGb (Efl1 R1086Q•Sdo1; +Mg^2+, 25 °C): -6.9 kcal/mol | ΔHb (Efl1 R1086Q•Sdo1; +Mg^2+, 25 °C): -2.1 ± 0.08 kcal/mol | -TΔSb (Efl1 R1086Q•Sdo1; +Mg^2+, 30 °C): -3.3 kcal/mol | Nconfres (number of residues changing conformation, absolute value) (Efl1 R1086Q•Sdo1; +Mg^2+, 30 °C): 25 | Nconfrotb (number of routable bonds changing conformation, absolute value) (Efl1 R1086Q•Sdo1; +Mg^2+, 30 °C): 34 | ΔCpconf (Efl1 R1086Q•Sdo1; +Mg^2+, 30 °C): −267 cal mol^−1 K^−1 | ΔCprb (Efl1 R1086Q•Sdo1; +Mg^2+, 30 °C): −48 cal mol^−1 K^−1 | ΔGb (Efl1 R1086Q•Sdo1; +Mg^2+, 30 °C): -7.1 kcal/mol | ΔHb (Efl1 R1086Q•Sdo1; +Mg^2+, 30 °C): -3.8 ± 0.05 kcal/mol | ΔSb (Efl1 R1086Q•Sdo1; +Mg^2+, 30 °C): 11 cal mol^−1 K^−1 | ΔSconf (Efl1 R1086Q•Sdo1; +Mg^2+, 30 °C): −57 cal mol^−1 K^−1 | ΔSsolv (Efl1 R1086Q•Sdo1; +Mg^2+, 30 °C): 75 cal mol^−1 K^−1 | −ΔASAconf (Efl1 R1086Q•Sdo1; +Mg^2+, 30 °C): 1198 Å^2 | -TΔSb (Efl1 R1086Q•Sdo1; +Mg^2+, 35 °C): -2.0 kcal/mol | ΔGb (Efl1 R1086Q•Sdo1; +Mg^2+, 35 °C): -7.3 kcal/mol | ΔHb (Efl1 R1086Q•Sdo1; +Mg^2+, 35 °C): -5.3 ± 0.11 kcal/mol | ΔCpb (Efl1 R1086Q•Sdo1; +Mg^2+): −315 cal mol^−1 K^−1 and −315 ± 9 cal mol^−1 K^−1 | -TΔs (Efl1 R1086Q•Sdo1; Efl1 R1086Q + Sdo1, 25 °C): -0.7 kcal/mol | Δg (Efl1 R1086Q•Sdo1; Efl1 R1086Q + Sdo1, 25 °C): -0.4 kcal/mol | Δh (Efl1 R1086Q•Sdo1; Efl1 R1086Q + Sdo1, 25 °C): 0.3 kcal/mol | κ (heterotropic cooperativity) (Efl1 R1086Q•Sdo1; Efl1 R1086Q + Sdo1, 25 °C): 1.9 | -TΔs (Efl1 R1086Q•Sdo1; Efl1 R1086Q + Sdo1, 30 °C): -2.4 kcal/mol | Δg (Efl1 R1086Q•Sdo1; Efl1 R1086Q + Sdo1, 30 °C): -0.8 kcal/mol | Δh (Efl1 R1086Q•Sdo1; Efl1 R1086Q + Sdo1, 30 °C): 1.6 kcal/mol | κ (heterotropic cooperativity) (Efl1 R1086Q•Sdo1; Efl1 R1086Q + Sdo1, 30 °C): 3.7 | -TΔs (Efl1 R1086Q•Sdo1; Efl1 R1086Q + Sdo1, 35 °C): -3.7 kcal/mol | Δg (Efl1 R1086Q•Sdo1; Efl1 R1086Q + Sdo1, 35 °C): -1.0 kcal/mol | Δh (Efl1 R1086Q•Sdo1; Efl1 R1086Q + Sdo1, 35 °C): 2.7 kcal/mol | κ (heterotropic cooperativity) (Efl1 R1086Q•Sdo1; Efl1 R1086Q + Sdo1, 35 °C): 5.4 | Kd (Efl1 R1086Q•Sdo1; +Mg^2+, 25 °C): 9 ± 2 µM | Kd (Efl1 R1086Q•Sdo1; +Mg^2+, 30 °C): 8 ± 1 µM | Kd (Efl1 R1086Q•Sdo1; +Mg^2+, 35 °C): 6 ± 1 µM | Kd (Efl1 R1086Q•Sdo1; −Mg^2+, 25 °C): 17 ± 0.5 µM | Kd (Efl1 R1086Q•Sdo1; −Mg^2+, 30 °C): 30 ± 4 µM | Kd (Efl1 R1086Q•Sdo1; −Mg^2+, 35 °C): 34 ± 5 µM | -TΔSb (Efl1 R1086Q•Sdo1; −Mg^2+, 25 °C): -4.0 kcal/mol | ΔGb (Efl1 R1086Q•Sdo1; −Mg^2+, 25 °C): -6.5 kcal/mol | ΔHb (Efl1 R1086Q•Sdo1; −Mg^2+, 25 °C): -2.5 ± 0.4 kcal/mol | -TΔSb (Efl1 R1086Q•Sdo1; −Mg^2+, 30 °C): -1.0 kcal/mol | Nconfres (number of residues changing conformation, absolute value) (Efl1 R1086Q•Sdo1; −Mg^2+, 30 °C): 50 | Nconfrotb (number of routable bonds changing conformation, absolute value) (Efl1 R1086Q•Sdo1; −Mg^2+, 30 °C): 72 | ΔCpconf (Efl1 R1086Q•Sdo1; −Mg^2+, 30 °C): −520 cal mol^−1 K^−1 | ΔGb (Efl1 R1086Q•Sdo1; −Mg^2+, 30 °C): -6.3 kcal/mol | ΔHb (Efl1 R1086Q•Sdo1; −Mg^2+, 30 °C): -5.4 ± 0.6 kcal/mol | ΔSb (Efl1 R1086Q•Sdo1; −Mg^2+, 30 °C): 3 cal mol^−1 K^−1 | ΔSconf (Efl1 R1086Q•Sdo1; −Mg^2+, 30 °C): −121 cal mol^−1 K^−1 | ΔSsolv (Efl1 R1086Q•Sdo1; −Mg^2+, 30 °C): 132 cal mol^−1 K^−1 | −ΔASAconf (Efl1 R1086Q•Sdo1; −Mg^2+, 30 °C): 2334 Å^2 | -TΔSb (Efl1 R1086Q•Sdo1; −Mg^2+, 35 °C): 1.7 kcal/mol | ΔGb (Efl1 R1086Q•Sdo1; −Mg^2+, 35 °C): -6.30 kcal/mol | ΔHb (Efl1 R1086Q•Sdo1; −Mg^2+, 35 °C): -8.0 ± 0.8 kcal/mol | ΔCpb (Efl1 R1086Q•Sdo1; −Mg^2+): −550 cal mol^−1 K^−1 and −550 ± 18 cal mol^−1 K^−1 | -TΔs (wild-type Efl1; [1]): -0.5 kcal/mol | Δg (wild-type Efl1; [1]): 0.6 kcal/mol | Δh (wild-type Efl1; [1]): 1.1 kcal/mol | κ (heterotropic cooperativity) (wild-type Efl1; [1]): 0.4 | -TΔs (wild-type Efl1; [2]): 1.5 kcal/mol | Δg (wild-type Efl1; [2]): 0.8 kcal/mol | Δh (wild-type Efl1; [2]): -0.7 kcal/mol | κ (heterotropic cooperativity) (wild-type Efl1; [2]): 0.3 | -TΔSb (wild-type Efl1; +Mg^2+, 30 °C): -0.5 kcal/mol | Kd (wild-type Efl1; +Mg^2+, 30 °C): 37 µM | ΔGb (wild-type Efl1; +Mg^2+, 30 °C): -6.1 kcal/mol | ΔHb (wild-type Efl1; +Mg^2+, 30 °C): -5.6 ± 0.2 kcal/mol | ΔCpb (wild-type Efl1; +Mg^2+): −310 ± 5 cal mol^−1 K^−1 and −310 cal mol^−1 K^−1 | -TΔSb (wild-type Efl1; −Mg^2+, 30 °C): 0.0 kcal/mol | Kd (wild-type Efl1; −Mg^2+, 30 °C): 16 µM | ΔGb (wild-type Efl1; −Mg^2+, 30 °C): -6.7 kcal/mol | ΔHb (wild-type Efl1; −Mg^2+, 30 °C): -6.7 ± 0.3 kcal/mol | ΔCpb (wild-type Efl1; −Mg^2+): −318 ± 35 cal mol^−1 K^−1 and −318 cal mol^−1 K^−1
